Results on one compound are retold here after patent US20060106102A1, “Napththalene derivatives which inhibit the cytokine or biological activity of microphage migration inhibitory factor (mif)” (priority 2002, published 2006).

For orientation: inhibition means how much of the control response was suppressed.

This experiment has as its system IL-1-induced COX-2 expression. The experiment is described as follows: IL-1-induced COX-2 expression in S112 human dermal fibroblasts (MIF-dependent event), flow cytometry. Type of experiment: cell-based. In short, it runs like this:
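Human dermal fibroblasts seeded at 10^5 cells/ml in RPMI/0.1% BSA for 18 h, then IL-1 stimulated with or without compound. Saponin-permeabilised cells stained with anti-COX-2 mAb plus FITC secondary; flow cytometry MFI, negative control subtracted, duplicates. Result is % inhibition of IL-1-induced MFI, mean or mean±SEM.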

`O=S(=O)(O)c1ccc2cc(O)c(O)cc2c1` [Compound 6, 6,7-dihydroxynaphthalene-2-sulfonic acid]: under “0.01, 0.1, 1.0, 10 and 50 μM”, the “inhibition of IL1-induced COX-2 expression, dose response (FIG. 3)” value is given as “Dose-dependent inhibition”. Further, where the note is “Homo sapiens, Fibroblast, compound 1 uM, IL-1 0.1 ng/ml, 6 hours, S112 cells, read-out: % inhibition of IL-1-induced COX2 expression (Effect)”, the inhibition at 1 µM amounted to 16.4%. Also, for the setting “Homo sapiens, Fibroblast, compound 10 uM, IL-1 0.1 ng/ml, 6 hours, S112 cells, read-out: % inhibition of IL-1-induced COX2 expression (Effect)”, the inhibition at 10 µM worked out at 22.4%. The inhibition at 25 µM (Homo sapiens, Fibroblast, compound 25 uM, IL-1 0.1 ng/ml, 6 hours, S112 cells, read-out: % inhibition of IL-1-induced COX2 expression (Effect)) amounted to 21.3%. Also, under “Homo sapiens, Fibroblast, compound 50 uM, IL-1 0.1 ng/ml, 6 hours, S112 cells, read-out: % inhibition of IL-1-induced COX2 expression (Effect)”, the inhibition at 50 µM was 25.7%. The inhibition at 100 µM (Homo sapiens, Fibroblast, compound 100 uM, IL-1 0.1 ng/ml, 6 hours, S112 cells, read-out: % inhibition of IL-1-induced COX2 expression (Effect)) came out at 24.4%. The “% inhibition (IL-1 induced COX-2 expression)” value (Table 2 experiment 1: compound alone, 50 μM) worked out at 38.0%.
